Test results: US20130022612A1, “METHODS AND COMPOSITIONS FOR MALARIA PROPHYLAXIS” (priority 2004, published 2013)

Key:
P. yoelii sporozoites [1] = conditions: preincubated with 10 mM E-64
Procedure: Lab-Tek glass slides (model 177402, Nalgene Nunc Corp., Naperville, Il.) were coated with […] of mAb 3D11 (P. berghei) or mAbs 2F6 and NYS1 (P. yoelii) and sporozoites pre-incubated with DMEM/BSA alone or supplemented with 10 mM E-64 or CD for two hours at 28° C. were added in the continued presence of the inhibitor for one hour at 37° C. in a humidified chamber with 5% CO2. The slides were then fixed with 4% paraformaldehyde, incubated with 1:100 dilution of either biotinylated mAb 3D11 (P. berghei) or biotinylated mAb NYS1 (P. yoelii) followed by streptavidin-FITC.

P. yoelii sporozoites [2] = conditions: sporozoites preincubated with E-64
Procedure: For assays with P. berghei and P. yoelii, Hepa 1-6 cells (ATCC CRL-1830, American Type Culture Collection, Manassas, Va.), a mouse hepatoma cell line permissive for P. yoelii sporozoite development (Mota, et al. (2000)) was seeded (8×10^4 cells/well) in Lab-Tek permanox chamber slides (Nalgene Nunc Corp., Naperville, II.) and grown until confluent.
For assays with P. falciparum, HepG2 cells (ATCC HB8065, American Type Culture Collection) were used. On the day of the experiment, sporozoites were pre-incubated with DMEM/BSA alone or with the indicated protease inhibitor for two hours at 28° C. and plated on cells in the continued presence of the inhibitor for one hour at 37° C.
In a control, Hepa 1-6 cells were incubated with E-64 for two hours at 37° C., the medium was removed and then untreated P. berghei sporozoites were added. The inhibitors used were: 10 mM E-64; 1 mM PMSF; 75 mM leupeptin; 0.3 mM aprotinin; 100 mM 3,4 DCl; 1 mM pepstatin. […] Cells were then permeabilized with cold methanol and stained again with mAbs 3D11, 2F6 or 2A10 followed by anti-mouse Ig conjugated to FITC. All sporozoites were FITC-positive whereas only extracellular sporozoites stained with rhodamine. The percentage of sporozoites that invaded the cells is calculated using the following equation:

[3] = system: CSP cleavage in P. berghei sporozoites; test: Cell contact assay (CSP cleavage on contact with hepatocytes); format: cell-based, Plasmodium berghei; conditions: experiment 1, no cells, visualized with α-N
Procedure: Hepa 1-6 cells were seeded on glass coverslips at a density of 2×10^5 cells per coverslip and grown until confluent. P. berghei sporozoites were incubated in DMEM±10 mM E-64 at 4° C. for two hours. Thirty minutes before sporozoites were added to coverslips, Cytochalasin D (CD) was added to all samples (final concentration, […]). Sporozoites were centrifuged onto coverslips (1250×g) for five minutes at 4° C. Coverslips were then brought to 37° C. for two minutes, fixed with 4% paraformaldehyde and stained with either mAb 3D11 followed by anti-mouse Ig FITC or the N-terminal antiserum (1:100) followed by anti-rabbit Ig FITC. […] As a control, sporozoites were spun onto coverslips without cells using the protocol outlined above.

P. berghei sporozoites [4] = conditions: in the presence of E-64
Procedure: Hepa 1-6 cells were plated in 96-well tissue culture-treated plates, allowed to grow until semi-confluent, washed with DMEM without phenol red, loaded with 10 μM calcein green AM for 1 hour at 37° C. and washed 3 times. 5×10^5 sporozoites in culture medium were centrifuged onto the calcein-loaded cells, incubated for 1 hour at 37° C. and supernatants containing the released calcein were transferred to a ThermoElectron Microfluor 96-well plate. Fluorescence was read in a Labsystems Fluoroscan II using excitation and emission wavelengths of 485 nm and 538 nm, respectively. Further details are outlined in (Coppi et al., 2007).

[5] = system: P. falciparum sporozoites; test: Sporozoite invasion assay, P. falciparum on HepG2 cells; format: cell-based, Plasmodium falciparum; conditions: sporozoites preincubated with E-64, HepG2 cells
Procedure: %invasion=total sporozites−extracellular sporozites×100/total sporozites
Hepa 1-6 cells were seeded in Permanox eight-chambered Lab-Tek wells (2.5×10^5/well) and allowed to grow overnight. On the day of the experiment, 5×10^5 P. berghei wild type, RCon or ΔRI sporozoites were added per well. Sporozoites pre-incubated with 10 μM E-64d for 15 minutes at 25° C. were used as controls. For experiments testing the effect of anti-repeat region antibodies on invasion, HepG2 cells were used and P. berghei or P. falciparum sporozoites were added to the cells in the presence of the indicated antibody. After 1 hour at 37° C., cells were washed, fixed, and sporozoites were stained with a double staining assay that distinguishes intracellular from extracellular sporozoites (Renia et al., 1988). To quantify EEF development, cells with sporozoites were grown for an additional 2 days after which they were fixed with methanol, stained with mAb 2E6 followed by goat anti-mouse Ig conjugated to FITC. In all assays, at least 50 fields per well were counted and each point was performed in triplicate.

P. berghei sporozoites [6] = system: P. berghei sporozoites
Procedure: Panel A illustrates P. berghei sporozoites were metabolically labeled with [35 S]-Cys/Met and then washed and kept on ice (lane 1) or chased with cold medium for two hours at 28° C., in the absence (lane 2) or presence of the indicated protease inhibitors (lanes 3-11). After the chase, sporozoites were lysed, CSP was immunoprecipitated and analyzed by SDS-PAGE and autoradiography (abbreviations: Apr, aprotinin; DCl, 3,4 DCl; Leu, leupeptin; Pep, pepstatin; Phen, 1,10 phenanthroline). Panel B illustrates P. falciparum sporozoites were metabolically labeled as above and then kept on ice (lane 1) or chased with cold medium for ninety minutes in the absence (lane 2) or presence of E-64 (lane 3). Samples were processed as outlined above. Panel C illustrates P. berghei sporozoites were preincubated with buffer (lane 1) or the indicated compounds, washed, metabolically labeled with [^35S]-Cys/Met, lysed, and CSP was immunoprecipitated and analyzed by SDS-PAGE and autoradiography. (Abbreviations: Az=sodium azide).
In addition to the above, pulse-chase metabolic labeling experiments were performed with sporozoites of the human malaria parasite, Plasmodium falciparum. […] In order to insure that the protease inhibitors were not toxic to sporozoites, sporozoites were incubated with the various inhibitors for two hours and then propidium iodide (hereinafter, “PI”) was added, which is a fluorescent molecule that enters permeabilized cells.

P. yoelii sporozoites [7] = test: Sporozoite infectivity in vivo (liver 18S rRNA by RT and real time PCR); set-up: species or system Plasmodium yoelii in Swiss/Webster mice
Procedure: Swiss/Webster mice were given three intraperitoneal injections of DMEM with or without E-64 (50 mg/kg/injection) at 16 hours, 2.5 hours, and 1 hour prior to intravenous injection of 15,000 P. yoelii sporozoites. Forty hours later, livers were harvested and total RNA was isolated using Tri-Reagent (Molecular Research Center, Cincinnati, Ohio). Malaria infection was quantified using reverse-transcription (RT) followed by real time PCR as outlined in (Bruna-Romero, et al. (2001)). RTs were performed with […] of total RNA and random hexamers (PE Applied Biosystems, Foster City, Calif.). Real time PCR was performed using primers that recognize P. yoelii-specific sequences within the 18S rRNA (Bruna-Romero, et al. (2001)) and the SYBR Green Core PCR kit (PE Applied Biosystems). Ten-fold dilutions of a plasmid construct containing the P. yoelii 18S gene were used to create a standard curve.
Swiss/Webster mice were given either 5 or 8 mg/kg of allicin (in DMEM without Cys/Met) intravenously (i.v.) at 60 minutes, 30 minutes, or immediately before i.v. injection of 10^4 P. yoelii sporozoites. Forty hours later, livers were harvested, total RNA was isolated, and malaria infection was quantified using reverse transcription (RT) followed by real time PCR using primers that recognize P. yoelii-specific sequences within the 18S rRNA as previously described (Bruna-Romero, O., et al.). Ten-fold dilutions of a plasmid construct containing the P. yoelii 18S rRNA gene were used to create a standard curve. For allicin preincubation experiments, P. yoelii sporozoites were preincubated with or without 50 μM allicin (in DMEM without Cys/Met) for ten minutes at 28° C. and diluted 12-fold with medium before i.v. injection into mice. All in vivo data were analyzed using the Student t-test for unpaired samples.

[8] = Brodnitz, M. H., et al.; cited from earlier work

| Structure (SMILES) | percentage of sporozoites that exhibited gliding motility (P. yoelii sporozoites [1]) | effect on invasion by P. yoelii sporozoites (P. yoelii sporozoites [2]) | percentage staining with the N-terminal antiserum [3] | increase in migratory activity (P. berghei sporozoites [4]) | effect on invasion by P. falciparum sporozoites [5] | CSP synthesis after incubation with inhibitor (P. berghei sporozoites [6]) | protection from malaria infection (liver P. yoelii 18S rRNA) (P. yoelii sporozoites [7]; E-64 50 mg/kg/injection intraperitoneal at 16 hours, 2.5 hours, 1 hour before 15,000 sporozoites i.v.) | stability in vivo [8] | sporozoite infectivity in vivo versus untreated controls (P. yoelii sporozoites [7]; 8 mg/kg allicin i.v. just before injection of sporozoites) | protection in vivo (P. yoelii sporozoites [7]; 8 mg/kg allicin i.v. one hour before sporozoites) | sporozoite infectivity in vivo versus untreated mice (P. yoelii sporozoites [7]; 8 mg/kg allicin i.v. thirty minutes before sporozoites) | reduction in infection (P. yoelii sporozoites [7]; allicin 5 mg/kg i.v. one minute before sporozoites) | decrease in infection compared to controls (P. yoelii sporozoites [7]; allicin 8 mg/kg i.v. one minute before sporozoites) | malaria infection in mice injected with pretreated sporozoites (P. yoelii sporozoites [7]; sporozoites preincubated with 50 μM allicin ten minutes, diluted 12-fold) |
| --- | --- | --- | --- | --- | --- | --- | --- | --- | --- | --- | --- | --- | --- | --- |
| CC(C)C[C@H](NC(=O)[C@H]1O[C@@H]1C(=O)O)C(=O)NCCCCN=C(N)N (relative stereo) [E-64, L-trans-epoxysuccinyl-leucylamide-[4-guanido]-butane] | no effect | significantly inhibited | 90% ± 4.1 | 4 to 5 fold | significantly inhibited | not affected | completely protected from malaria infection |  |  |  |  |  |  |  |
| C=CCS[S+]([O-])CC=C (centres unmarked) [allicin] |  |  |  |  |  |  |  | rapid decomposition in vivo | significantly decreased infectivity | little protection | decreased infectivity | 10 fold | 1000 fold | no evidence of malaria infection |
